Reference: US8835134B2, “Cycloastragenol monoglucoside, preparation, pharmaceutical composition and application thereof” (Tianjin Institute of Pharmaceutical Research, priority 2007, dated 2014)

System: anesthetized open-chest dogs
Experiment: Hemodynamics of anesthetized open-chest dogs, intravenous infusion
Assay type: in vivo, mongrel dogs
Conditions: 0.15 mg/kg iv
Method: The animals were anesthetized by intravenous injection of 30 mg/kg sodium pentobarbital, tracheally intubated, and mechanically ventilated with positive air pressure. Left thoracotomy was performed through the fourth intercostal space and the heart was suspended in a pericardial cradle, the aortic root was isolated and a probe of blood flow meter (12 or 14 mm in diameter) was fixed to measure the aortic blood flow as a representation of cardiac output (CO), the circumflex branch of left coronary artery was isolated and a probe of blood flow meter (2 or 2.5 mm in diameter) was fixed to measure the coronary blood flow (CBF). A polyethylene catheter filled with heparin physiological saline was inserted through cardiac apex into the left ventricle to measure the left ventricular pressure (LVP) and left ventricular end-diastolic pressure (LVEDP), Peak positive and peak negative first derivatives of the LVP (+ LVdp/dt and − LVdp/dt) were calculated with the Acknowledge software. The systolic blood pressure (SBP), diastolic blood pressure (DBP) and mean arterial pressure (MAP) were measured by polyethylene catheter via the femoral artery, ECG □ was measured by a AC-601G ECG amplifier. The above-mentioned analog signal was input into a data acquisition workstation (MP100, BIOPAC Systems, USA) to a computer running Acknowledge (version 3.7.1).
After surgery, various indexes before administration were recorded until the indexes were stable, and then intravenous infusion administration was conducted. Thirty dogs were divided into five groups (six dogs in each group), the experiment groups were given 0.15, 0.3, 0.6 mg/kg of ASP-[…] respectively, the normal control group was given 1 ml/kg of solvent, and the positive control group was given 0.3 mg/kg of astragaloside IV. The delivery volumes were 15 ml for each dog was and the delivery velocity was 1 ml/min. The indexes were recorded at 5, 10, 15, 20, 30, 45, 60, 90 and 120 mins after drug administration. At the end of experiment, the hearts were excised and weighted. The myocardial blood flow for per hectogram (CF), coronary resistance (CR), cardiac index (CI), left ventricular work (LVW) and total peripheral resistance (TPR) were calculated according to the following formulae: CF=CBF×[…]/heart weight CR=MAP/CF CI=CO/0.11×(body weight)^2/3 LVW=CO×(MAP−5)×1.052×0.0136 TPR=MAP×79.92/CO
Data are expressed as mean±SD ( x±s), the paired t-test was used to compare the significance between before and after administration, the unpaired t-test was adopted for comparison between groups.

## CC(C)(O)[C@@H]1CC[C@](C)([C@H]2[C@@H](O)C[C@@]3(C)C4C[C@H](OC5OC(CO)C(O)C(O)C5O)C5C(C)(C)[C@@H](O)CC[C@@]56C[C@@]46CC[C@]23C)O1 (stereo partly drawn) [CMG, Cycloastragenol-6-O-β-D-glucoside]
20 min after administration
  LVW: 1.04 ± 0.23 kg · m
  LVW change vs before administration: (−0.08 ± 0.21) kg · m
  TPR: 4882 ± 1971 dyn · s/cm^5
  TPR change vs before administration: (−268 ± 672) dyn · s/cm^5
  dp/dt: 1144 ± 452 mmHg/s
  dp/dt change vs before administration: (−6 ± 113) mmHg/s
  −dp/dt: −830 ± 277 mmHg/s
  −dp/dt change vs before administration: (58 ± 77) mmHg/s
30 min after administration
  CF: 52.5 ± 16.9 ml/min/100 g
  CF change vs before administration: (−5.2 ± 7.9) ml/min/100 g
  CI: 1.98 ± 0.44 L/min/m^2
  CI change vs before administration: (−0.10 ± 0.27) L/min/m^2
  CO: 1.14 ± 0.24 L/min
  CO change vs before administration: (−0.07 ± 0.16) L/min
  CR: 1.38 ± 0.38 mmHg/ml/min/100 g
  CR change vs before administration: (0.02 ± 0.13) mmHg/ml/min/100 g
  LVEDP: 1.2 ± 2.4 mmHg
  LVEDP change vs before administration: (−0.58 ± 0.46) mmHg
  LVP: 100 ± 21 mmHg
  LVP change vs before administration: (−5.0 ± 7.3) mmHg
  LVW: 1.01 ± 0.26 kg · m
  LVW change vs before administration: (−0.11 ± 0.27) kg · m
  TPR: 5045 ± 2043 dyn · s/cm^5
  TPR change vs before administration: (−105 ± 498) dyn · s/cm^5
  dp/dt: 1170 ± 425 mmHg/s
  dp/dt change vs before administration: (20 ± 157) mmHg/s
  −dp/dt: −863 ± 258 mmHg/s
  −dp/dt change vs before administration: (25 ± 79) mmHg/s
45 min after administration
  CF: 51.6 ± 17.1 ml/min/100 g
  CF change vs before administration: (−6.1 ± 8.1) ml/min/100 g
  CI: 2.02 ± 0.45 L/min/m^2
  CI change vs before administration: (−0.06 ± 0.43) L/min/m^2
  CO: 1.16 ± 0.22 L/min
  CO change vs before administration: (−0.04 ± 0.25) L/min
  CR: 1.42 ± 0.39 mmHg/ml/min/100 g
  CR change vs before administration: (0.07 ± 0.20) mmHg/ml/min/100 g
  LVEDP: 1.3 ± 2.2 mmHg
  LVEDP change vs before administration: (−0.5 ± 0.44) mmHg
  LVP: 101 ± 19 mmHg
  LVP change vs before administration: (−3.6 ± 4.6) mmHg
  LVW: 1.06 ± 0.31 kg · m
  LVW change vs before administration: (−0.06 ± 0.32) kg · m
  TPR: 4951 ± 1731 dyn · s/cm^5
  TPR change vs before administration: (−199 ± 925) dyn · s/cm^5
  dp/dt: 1164 ± 356 mmHg/s
  dp/dt change vs before administration: (14 ± 86) mmHg/s
  −dp/dt: −854 ± 259 mmHg/s
  −dp/dt change vs before administration: (34 ± 80) mmHg/s
60 min after administration
  CF: 51.8 ± 15.0 ml/min/100 g
  CF change vs before administration: (−5.9 ± 9.9) ml/min/100 g
  CI: 1.92 ± 0.42 L/min/m^2
  CI change vs before administration: (−0.16 ± 0.37) L/min/m^2
  CO: 1.11 ± 0.21 L/min
  CO change vs before administration: (−0.10 ± 0.23) L/min
  CR: 1.38 ± 0.36 mmHg/ml/min/100 g
  CR change vs before administration: (0.03 ± 0.16) mmHg/ml/min/100 g
  LVEDP: 1.3 ± 2.1 mmHg
  LVEDP change vs before administration: (−0.46 ± 0.41) mmHg
  LVP: 101 ± 19 mmHg
  LVP change vs before administration: (−4.1 ± 4.9) mmHg
  LVW: 1.00 ± 0.34 kg · m
  LVW change vs before administration: (−0.12 ± 0.33) kg · m
  TPR: 5112 ± 1599 dyn · s/cm^5
  TPR change vs before administration: (−38 ± 811) dyn · s/cm^5
  dp/dt: 1126 ± 375 mmHg/s
  dp/dt change vs before administration: (−24 ± 57) mmHg/s
  −dp/dt: −841 ± 249 mmHg/s
  −dp/dt change vs before administration: (47 ± 92) mmHg/s
90 min after administration
  CF: 53.7 ± 14.3 ml/min/100 g
  CF change vs before administration: (−4.0 ± 10.4) ml/min/100 g
  CI: 1.83 ± 0.36 L/min/m^2
  CI change vs before administration: (−0.25 ± 0.39) L/min/m^2
  CO: 1.06 ± 0.20 L/min
